“Also recorded” adds a separate entry of the source.
What was measured:
MDA-MB231 cells [1] = assay: EGF-stimulated lamellipodial (membrane) protrusion in MDA-MB231 cells; format: cell-based; settings: for lamellipodial protrusion 8 min post-stimulation: 0.5 nM EGF
Protocol: (§1) FIG. 2A-2G. Inhibition of PTP1b phenocopies expression of Mena^INV. (A) MDA-MB231 cells were serum starved for 4 h with addition of 10 μM PTP1b inhibitor (EMD Calbiochem) for the time indicated. Cells were then stimulated with 0.5 nM EGF and lamellipodial protrusion was measured 8 min post-stimulation. […] (G) Inhibition of PTP1b in vivo shifts the sensitivity of GFP-Control MTLn3 xenografted cells to 5 nM (a 5× increase in sensitivity). *p<0.05 and **p<0.01 by ANOVA and Tukey post-test.
FIG. 8A-8D: The activity of SHIP2 is not required for early stages of Mena^INV-induced lamellipodial protrusion. MDA-MB231 (A,B) and MTLn3 (C,D) cells were incubated for 4 h with 10 μM AS1949490 in serum-free medium. Cells were stimulated with 0.25 nM (A,B) or 0.5 nM (C,D) EGF and membrane protrusion was recorded 8 min. […]
In contrast, inhibition of PTP1b increased lamellipodial protrusion in MDA-MB231-GFP control cells in a time dependent manner in response to 0.5 nM EGF.

MTLn3 cells [2] = assay: EGF-stimulated lamellipodial (membrane) protrusion in MTLn3 cells; format: cell-based
Protocol: as §1
FIG. 8A-8D: The activity of SHIP2 is not required for early stages of Mena^INV-induced lamellipodial protrusion. MDA-MB231 (A,B) and MTLn3 (C,D) cells were incubated for 4 h with 10 μM AS1949490 in serum-free medium. Cells were stimulated with 0.25 nM (A,B) or 0.5 nM (C,D) EGF and membrane protrusion was recorded 8 min.
What could account for the phenotypes associated with inclusion of the INV exon of Mena, that include: increased activation of EGFR and downstream EGFR-mediated, motility-specific signaling pathways, increased cell invasion, and decreased efficacy of tyrosine kinase inhibition? One route to aberrant signal amplification is dysregulation of control nodes within the protein network, such as phosphatases, that could lead to prolonged or amplified phosphorylation states. Identification of potential Mena and Mena^INV interacting partners that might affect phosphatase activity can shed light on this. Attempts were made at identification of Mena isoforms-specific interacting partners via mass spectrometric analysis. Several unsuccessful attempts to purify Mena interacting partners through a co-immunprecipitation and the mass spectrometric approach resulted. A bioinformatics screening approach was then used. A list of 38 human phosphatases was queried for potential Ena/VASP interaction motifs, with the hypothesis that an interaction between Mena^INV and a phosphatase important for attenuating growth factor responses could lead to increased signaling upon growth factor stimulation. […]

[3] = system: EGFR Y1173 phosphorylation in MDA-MB231 cells; assay: EGFR Y1173 phosphorylation on PTP1b inhibition, semi-quantitative Western blotting; format: cell-based; settings: 0.25 nM EGF, 10 μM, 30 min preincubation
Protocol: (§2) FIG. 9A-9C: PTP1b inhibition increases EGFR pathway activation. MDA-MB231 cells expressing GFP-control or GFPMena^INV were serum starved for 4 h and stimulated with 0.25 nM EGF in the presence or absence of 10 μM PTP1b (30 min preincubation). Phosphorylation of EGFR on Y1173 was measured using semi-quantitative Western blotting (A, B) of quadruplicate lysates. […] MTLn3 cells were transiently transfected with a mCherry-tagged PHdomain biosensor targeting PI(4,5)P2, starved in L15 media, pre-incubated with 10 μM PTP1bi and then stimulated with 0.5 nM EGF.

MDA-MB231 cells [4] = assay: In vitro invasion into collagen I gels; format: cell-based; settings: 0.25 or 0.5 nM EGF
[5] = system: xenograft tumors of MTLn3 cells; assay: In vivo invasion assay (needle collection from xenograft tumors); design: species or system mouse
Protocol: An in vivo invasion assay was employed to determine the effect of decreased PTP1b activity on tumor cell chemotaxis. To mimic the in vitro invasion experiments, 50 μM PTP1b inhibitor was added to needles with 10% matrigel and varying concentrations of EGF, the needles inserted into xenograft tumors of MTLn3 cells expressing either GFP or GFP-Mena^INV and cells allowed to crawl into the needle during a 4 h period. Similar to the results obtained in vitro, addition of PTP1b inhibitor to needles used to collect cells had no effect on the number of cells ectopically expressing Mena^INV collected (FIG. 2G). However, PTP1b inhibition increased the sensitivity of control cells 5-fold, decreasing the concentration of EGF required for chemotaxis into the needles from 25 nM to 5 nM. In this assay the discrepancy between expression of Mena^INV and inhibition of PTP1b may be due to the time lag required for inhibitor efficacy.
However, viability of the mouse under anesthesia precludes collection of cells for longer periods than 4 h, therefore this effect is difficult to quantify.

MTLn3 cells [6] = assay: PI(4,5)P2 hydrolysis, mCherry-tagged PH-domain biosensor (PLCγ activity); format: cell-based; settings: GFP-control MTLn3, 10 μM pre-incubation, 0.5 nM EGF, 3 min post-EGF, versus DMSO
Protocol: as §2

cells expressing MenaINV = assay: Membrane protrusion after 1 nM EGF with increasing doses of Erlotinib; format: cell-based
Protocol: FIG. 6A-6D: Cells expressing MenaINV are resistant to EGFR targeted kinase inhibitors. [A] […] Data was combined to generate novel hypothesis regarding clinically-relevant treatment regimes for invasive breast cancer. […]. Membrane protrusion was quantified 8 min post-EGF/drug addition. *p<0.05, **p<0.01, ***p<0.001. […]. Cells were serum starved and then stimulated with EGF and drug for 3 min. Cells were lysed and the level of EGFR-pY1173 was determined by semi-quantitative Western Blot.
. To test this hypothesis, serum-starved cells were treated with 1.0 nM EGF and increasing doses of DMSO (carrier control) or Erlotinib and measured EGFR phosphorylation at 3 min post-stimulation (FIG. 6B). […]. […] Further, electron microscopy was performed using ultra-small gold particles to examine receptor distribution along the cell membrane to determine if increased clustering of the receptor might affect drug binding or signal propagation. However, no significant difference was found in receptor clustering in the analysis (FIG. 7).

mammary carcinoma cells = assay: In vivo invasion of mammary carcinoma cells under Erlotinib
MET [7] = assay: HGF-stimulated protrusion assay with MET inhibitor; format: cell-based; settings: +5 ng/ml HGF
Protocol: FIG. 11: Cell protrusion assays were performed in which starved carcinoma cells expressing GFP, GFP-Mena or GFP-Mena^INV were stimulated with different concentrations of hepatocyte growth factor (HGF) (analogously as done with EGF stimulation of EGFR) followed by a measurement of cell protrusion several minutes later. The HGF concentrations (x-axis) are nM and the Y-axis is increase in cell size (a reflection of protrusion) compared to unstimulated cells.

MET [8] = assay: MET kinase activity in cells with MET inhibitor; format: cell-based

Question: With CCc1oc2cc(S(=O)(=O)Nc3ccc(S(=O)(=O)Nc4nccs4)cc3)ccc2c1C(=O)c1cc(Br)c(O)c(Br)c1 [PTP1b inhibitor] as the compound, how does the “lamellipodial protrusion 8 min post-stimulation” value (MDA-MB231 cells [1]; GFP-control cells, 10 μM, 30 min pre-incubation) read?
Answer: The value was “complete phenocopy of Mena^INV-dependent responses; also recorded: significant increase in membrane protrusion”.

Question: What about the kinetics of protrusion (MDA-MB231 cells [1]; MDA-MB231-GFP control cells, 30 min pre-incubation) of the same compound?
Answer: Its kinetics of protrusion is “increased the kinetics of protrusion”.

Question: And the membrane protrusion (MDA-MB231 cells [1]; MDA-MB231-GFP-Mena and GFP control cells, 0.25 nM EGF)?
Answer: Its membrane protrusion is “increased membrane protrusion; also recorded: protrusion was increased”.

Question: And the kinetics of protrusion (MDA-MB231 cells [1]; MDA-MB231-GFP-Mena^INV cells)?
Answer: The kinetics of protrusion was “without affecting the dynamics”.

Question: And the membrane protrusion (MDA-MB231 cells [1]; MDA-MB231-GFP-Mena^INV cells, 0.25 nM EGF)?
Answer: The membrane protrusion was “no further increase was measured”.

Question: What about the membrane protrusion (MDA-MB231 cells [1]; cells expressing Mena^INV, 0.125 nM EGF (data not shown)) of the same compound?
Answer: The membrane protrusion was “does not increase membrane protrusion”.

Question: And the “lamellipodial protrusion 8 min post-stimulation” value (MDA-MB231 cells [1]; cells expressing Mena^INV, 10 μM, 30 min pre-incubation)?
Answer: Its value is “had no effect”.

Question: And the “membrane protrusion (magnitude and kinetics)” value (MTLn3 cells [2]; unmodified MTLn3 cells, EGF (0.5 nM, 5 nM elsewhere in the source))?
Answer: The value was “increased the magnitude and kinetics of membrane protrusion; also recorded: significantly enhanced”.

Question: What about the “EGFR Y1173 phosphorylation” value ([3]; GFP control cells) of the same compound?
Answer: Its value is “increases EGFR phosphorylation on Y1173; also recorded: increased EGFR Y1173 phosphorylation”.

Question: What about the “EGFR Y1173 phosphorylation” value ([3]; GFP control cells, listed as PTP1bi) of the same compound?
Answer: Its value is “increased EGFR Y1173 phosphorylation”.

Question: What about the “EGFR Y1173 phosphorylation” value ([3]; cells expressing Mena^INV) of the same compound?
Answer: Its value is “no additional affect”.

Question: And the “invasion into collagen I gels” value (MDA-MB231 cells [4]; MDA-MB231-GFP and -GFP-Mena)?
Answer: Its value is “increased”.

Question: What about the “invasion into collagen I gels” value (MDA-MB231 cells [4]; cells expressing Mena^INV) of the same compound?
Answer: The value was “no significant effect”.

Question: What about the “increase in sensitivity of control cells to EGF in vivo” value ([5]; GFP-control MTLn3 xenograft, 50 μM inhibitor in needles, 4 h) of the same compound?
Answer: Its value is 5 fold.

Question: What about the “concentration of EGF required for chemotaxis into the needles with inhibitor” value ([5]; GFP-control MTLn3 xenograft, 50 μM inhibitor, 25 nM without inhibitor) of the same compound?
Answer: The value was 5 nM.

Question: And the “number of cells collected into needles” value ([5]; MTLn3 cells ectopically expressing Mena^INV, 50 μM inhibitor)?
Answer: The value was “had no effect”.

Question: What about the “PI(4,5)P2 hydrolysis (PLCγ activity)” value (MTLn3 cells [6]) of the same compound?
Answer: The value was “increased PI(4,5)P2 hydrolysis”.

Question: And the “PI(4,5)P2 hydrolysis (PLCγ activity)” value (MTLn3 cells [6]; listed as PTP1bi)?
Answer: Its value is “PLCγ activity is greater”.

Question: How did the “membrane protrusion at 8 min post-EGF stimulation” value (MDA-MB231 cells [1]; MDA-MB231-GFP-Mena^INV, 10 μM for 4 h, 0.25 nM EGF) turn out when C[C@H](NC(=O)c1sccc1OCc1ccc(Cl)cc1)c1ccccc1 [AS1949490] was run?
Answer: Its value is “reduced the protrusion response; also recorded: decreased membrane protrusion to GFPcontrol levels”.

Question: What about the “initial protrusion response (kinetics)” value (MDA-MB231 cells [1]; MDA-MB231-GFP-Mena^INV, 10 μM, 0.25 nM EGF, up to 3 min post-stimulation) of the same compound?
Answer: Its value is “still demonstrated the fast initial protrusion response”.

Question: And the “membrane protrusion at 8 min post-EGF stimulation” value (MTLn3 cells [2]; MTLn3-GFP-Mena^INV, 10 μM for 4 h, 0.5 nM EGF)?
Answer: The value was “reduced the protrusion response; also recorded: decreased membrane protrusion to GFPcontrol levels”.

Question: What about the “initial protrusion response (kinetics)” value (MTLn3 cells [2]; MTLn3-GFP-Mena^INV, 10 μM, 0.5 nM EGF, up to 3 min post-stimulation) of the same compound?
Answer: Its value is “still demonstrated the fast initial protrusion response”.

Question: Which “drug required to decrease lamellipodial protrusion, Mena^INV cells compared to control GFP or Mena cells” value (cells expressing MenaINV; 1 nM EGF, 8 min post-EGF/drug addition) does the source give for C#Cc1cccc(Nc2ncnc3cc(OCCOC)c(OCCOC)cc23)c1 [Erlotinib] here?
Answer: The value was “ten-fold more Erlotinib was required; also recorded: Significantly higher doses of Erlotinib (Tarceva) are required”.

Question: What about the “efficacy after normalizing protrusion to the no-drug response of each cell line” value (cells expressing MenaINV; across cell lines (FIG. 6D)) of the same compound?
Answer: Its value is “roughly equivalent; also recorded: a common response across cell lines”.

Question: And the in vivo invasion (mammary carcinoma cells; GFP-expressing mammary carcinoma cells)?
Answer: Its in vivo invasion is “abrogates in vivo invasion”.

Question: What about the in vivo invasion (mammary carcinoma cells; cells that express Mena^INV) of the same compound?
Answer: Its in vivo invasion is “does not fully block invasion”.

Question: Which “response of Mena^INV expressing cells in protrusion assay” value (MET [7]) does the source give for Cc1[nH]c(/C=C2\C(=O)Nc3ccc(S(=O)(=O)N(C)c4cccc(Cl)c4)cc32)c(C)c1C(=O)N1CCN(C)CC1 [SU11274] here?
Answer: Its value is “resistant”.

Question: What about the “response of Mena^INV expressing cells, MET kinase activity” value (MET [8]) of the same compound?
Answer: Its value is “resistant”.

Source: patent publication US10928397B2, “Methods involving MenaINV in screening for inhibitors of cancer invasion and metastasis” (MASSACHUSETTS INSTITUTE OF TECHNOLOGY, priority 2012, dated 2021)
